According to ChEMBL document CHEMBL5120912, “Structure Revision of Trichomide D by Total Synthesis” (J Nat Prod, 2022):
pIC50: −log10 of the molar value.

Assays:
Type in all cases: functional, cell-based
HeLa S3 = assay: Cytotoxicity against human HeLa S3 cells assessed as inhibition of cell growth incubated for 72 hrs by MTT assay; conditions: HeLa S3, 72 h
MCF7 [1] = assay: Cytotoxicity against human MCF7 cells assessed as inhibition of cell growth incubated for 72 hrs by MTT assay; conditions: MCF7, 72 h
MCF7 [2] = assay: Cytotoxicity against human MCF7 cells assessed as inhibition of cell growth incubated for 24 hrs by MTT assay; conditions: MCF7, 24 h
HL-60 = assay: Cytotoxicity against human HL-60 cells assessed as inhibition of cell growth incubated for 24 hrs by MTT assay; conditions: HL-60, 24 h
SW480 = assay: Cytotoxicity against human SW480 cells assessed as inhibition of cell growth incubated for 24 hrs by MTT assay; conditions: SW480, 24 h

| Compound | pIC50 (HeLa S3) | pIC50 (MCF7 [1]) | pIC50 (MCF7 [2]) | pIC50 (HL-60) | pIC50 (SW480) |
| --- | --- | --- | --- | --- | --- |
| CC[C@H](C)[C@@H]1NC(=O)[C@@H]2[C@@H](C)CCN2C(=O)[C@@H](C[C@H](O)CCl)OC(=O)CCNC(=O)[C@H](C)N(C)C(=O)[C@H]([C@@H](C)CC)N(C)C1=O | 7.51 | 6.47 |  |  |  |
| CC[C@H](C)[C@@H]1NC(=O)[C@@H]2[C@@H](C)CCN2C(=O)[C@@H](C[C@@H](O)CCl)OC(=O)CCNC(=O)[C@H](C)N(C)C(=O)[C@H]([C@@H](C)CC)N(C)C1=O | 6.40 | 5.55 | 7.10 | 6.83 | 6.97 |
| CC[C@H](C)[C@@H]1NC(=O)[C@@H]2[C@@H](C)CCN2C(=O)[C@@H](C[C@H](O)CO)OC(=O)CCNC(=O)[C@H](C)N(C)C(=O)[C@H]([C@@H](C)CC)N(C)C1=O | < 5.00 | < 5.00 |  |  |  |
| CO[C@@]12[C@H](COC(N)=O)C3=C(C(=O)C(C)=C(N)C3=O)N1C[C@@H]1N[C@@H]12 [MITOMYCIN] | 6.28 | 5.74 |  |  |  |
